What was measured:
PBMC from normal donors = assay type: cell-based, human
[1] = system: patients with recurrent or residual cervical carcinoma; details: cited from earlier work

Substance: QYIKANSKFIGITE [Epitope 553.01]
- antigen concentration at which the 10,000 cpm proliferation level was reached (PBMC from normal donors): about 10,000 ng/ml

Substance: aKXVAAWTLKAAa-NH2
- responding patients ([1]; 95% interval 10-65%): 33%
- safety ([1]; co-emulsified with HPV-derived CTL epitopes): favorable safety profile

From patent US6602510B1, “HLA class I A2 tumor associated antigen peptides and vaccine compositions” (priority 2000, dated 2003)
